Laboratory results taken from US6372790B1, “Pharmaceutical composition comprising a combination of metformin and fibrate, and its use for the preparation of medicines intended to reduce hyperglycaemia” (Merck Patent Gesellschaft mit beschrankter Haftung, priority 1998, dated 2002).

Tested on: NIDD STZ rats
Test: Streptozotocin-induced non-insulin-dependent diabetes (NIDD) rat model: glycaemia, cholesterol, triglycerides
Format: in vivo, male Wistar rats
Details: for Cholesterol / Glycaemia / Triglycerides: STZ (45 mg/kg) diabetic male Wistar rats, oral treatment at the doses in Table 1, measured 23 days after STZ, mean ± SEM, 10 rats per group
Protocol: Non-insulin-dependent diabetes (NIDD) is induced by injecting streptozotocin into male wistar rats. […] The procedure followed is as follows. […] Two weeks after this treatment, blood is taken and the glycaemia is measured. […] The animals then receive, orally, either metformin alone, or a fibrate alone, or a combination of the two in the doses indicated in Table 1 below. 23 days after the injection of streptozotocin, the animals are sacrificed and the following parameters are determined: glycaemia, cholesterol and triglycerides. […] The Student t test is carried out to evaluate the significance of the results obtained.

| SMILES | Cholesterol [g/L] | Glycaemia [g/L] | Triglycerides [g/L] | Glycaemia (listed as bezafibrate) [g/L] | Glycaemia (listed as metformin) [g/L] | Effects on the levels of cholesterol and of triglycerides when administered alone (metformin alone, in animals, such as in man) |
| --- | --- | --- | --- | --- | --- | --- |
| CC(C)(Oc1ccc(CCNC(=O)c2ccc(Cl)cc2)cc1)C(=O)O [Bezafibrate, bezafibrate] | 0.52 ± 0.05 | 2.20 ± 0.21 | 0.81 ± 0.11 | 2.20 |  |  |
| CC(C)OC(=O)C(C)(C)Oc1ccc(C(=O)c2ccc(Cl)cc2)cc1 [Fenofibrate, fenofibrate] | 0.45 ± 0.02 |  | 0.61 ± 0.10 |  |  |  |
| CCOC(=O)C(C)(C)Oc1ccc(Cl)cc1 [Clofibrate, clofibrate] | 0.63 ± 0.03 | 2.58 ± 0.11 | 0.93 ± 0.11 |  |  |  |
| CN(C)C(=N)N=C(N)N [Metformin, metformin] | 0.61 ± 0.03 | 1.74 ± 0.14 | 0.85 ± 0.10 |  | 1.74 | effects on decreasing the levels of cholesterol and of triglycerides |
